Reference: patent US11168059B2, “Amino sulfonyl compounds” (CV6 Therapeutics (NI) Limited, priority 2016, dated 2021)

These compounds were tested against T1, recombinant human deoxyuridine nucleotidohydrolase (dUTPase) (Homo sapiens, UniProt P33316) (assay: dUTPase inhibition, fluorescence-based DNA polymerase assay). Settings: not given.
T1 construct: made in house
T1 sequence (P33316 1-164 isoform P33316-2): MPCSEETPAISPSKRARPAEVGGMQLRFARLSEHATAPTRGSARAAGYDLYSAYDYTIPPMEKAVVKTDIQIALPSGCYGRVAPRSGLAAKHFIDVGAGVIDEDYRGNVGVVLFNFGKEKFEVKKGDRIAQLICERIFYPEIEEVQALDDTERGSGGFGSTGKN
Format: biochemical
Excerpt: Recombinant human deoxyuridine nucleotidohydrolase (dUTPase) is expressed and purified as described in Ladner R D, Carr S A, Huddleston M J, McNulty D E, Caradonna S J. J Biol Chem. 1996 Mar. 29; 271(13):7752-7. All drugs stocks are aliquoted and diluted as appropriate prior to use. The oligonucelotide primer, templates and fluorophore- and quencher-labeled detection probes are synthesized by Integrated DNA Technologies (Coralville, Iowa), subjected to polyacrylamide gel electrophoresis purification and reconstituted in Omnipur sterile nuclease-free water (EMD Chemicals USA, Gibbstown N.J.) at a stock concentration of 100 μmol/L. The two non-emissive (dark) quenching molecules incorporated into the detection probes include the Iowa black fluorescein quencher (IBFQ; absorption max 531 nm) and ZEN (non-abbreviation; absorption max 532 nm). The fluorescent label utilized is 6-FAM (5′-carboxyfluorescein; excitation max.=494 nm, emission max.=520 nm). Probes are further diluted to a working stock of 10 μmol/L and aliquoted to avoid repeated freeze/thaw cycles. AmpliTaq Gold DNA Polymerase, GeneAmp 10×PCR Buffer 2, MgCl2 and MicroAmp Optical 96-well Reaction Plates are purchased from Applied Biosystems (Carlsbad, Calif.). dNTPs are purchased individually at stock concentrations of 100 mmol/L from New England Biolabs at HPLC-certified >99% purity (Ipswich, Mass.).
Reaction mixtures contained primer, probe and template at an equimolar final concentration of 0.4 μmol/L. Magnesium chloride (MgCl2) is included at a final concentration of 2 mmol/L. Non-limiting dNTPs are included in the reaction mix in excess at a final concentration of 100 μmol/L (dUTP/dTTP is excluded). AmpliTaq Gold DNA polymerase is added at 0.875 U/reaction, 2.5 μl of 10×PCR buffer 2 added and nuclease-free ddH2O added to a final reaction volume of 25 μl. For dUTP inhibition analysis, the volume of ddH2O is further modified to accommodate an additional 1 μl of dUTPase (10 ng/μl) and 1 μl of inhibitor or DMSO control. Thermal profiling and fluorescence detection is performed using a customized thermal program on board a Roche Lightcycler LC480 Instrument II. For analysis of dNTPs, the thermal profile consisted of an 8 min 37° C. step followed by a 10 min 95° C. step to ‘hot-start’ the Taq polymerase and a primer extension time of up to 30 min at 60° C. Raw fluorescence spectra for 6-FAM is measured at specified time intervals to follow assay progression on board a Roche LightCycler 480 Software Version 1.5 and exported and analyzed in Microsoft Excel (Microsoft, Redmond Wash.) and Prism (GraphPad Software, La Jolla Calif.). Fluorescence values for blank reactions (limiting dNTP omitted) are subtracted to give normalized fluorescence units (NFU) to account for background fluorescence.
Test compounds are screened in a fluorescence-based assay. The assay employs a DNA polymerase-based approach utilizing an oligonucleotide template with 3 distinct regions: a 3′ primer binding region, a mid-template dUTP/thymidine triphosphate (TTP) detection region and a 5′ 6-[…] (FAM)-labeled probe binding region that incorporates a black hole quenching moiety. During the reaction, the probe and primer hybridize to the oligonucleotide template to form the template:primer:probe complex. When Taq polymerase binds to the primer in the TPP complex and dUTP is present, successful extension of the nascent strand occurs and the inherent 5′ to 3′ exonuclease activity of Taq polymerase cleaves and displaces the 6-FAM-labeled probe in a 5′ to 3′ direction, releasing the 6-FAM fluorophore from its proximity to the […]. This displacement effectively disrupts the Forster resonance energy transfer (FRET) and the resulting fluorescence detected upon excitation is directly proportional to the amount of the dUTP available in the assay for incorporation. […]

Row | Compound | IC50 [nM]
1 | O=C1CN(Cc2ccc(CNS(=O)(=O)c3cccc(OC4CCCC4)c3)cc2)C(=O)N1 [Example 40, 3-(cyclopentyloxy)-N-(4-((2,4-dioxoimidazolidin-1-yl)methyl)benzyl)benzenesulfonamide] | 1400
2 | CC(C)(NS(=O)(=O)c1cccc(OC2CCCC2)c1)c1ccc(CN2CC(=O)NC2=O)cc1 [Example 41, 3-(cyclopentyloxy)-N-(2-(4-((2,4-dioxoimidazolidin-1-yl)methyl)phenyl)propan-2-yl)benzenesulfonamide] | 300

Same assay, conditions: mean over three concentrations, typically 100, 50 and 25 μmol/L, relative to in-run positive control

Row | Compound | % relative inhibition vs. positive control [%]
3 | O=C1CN(C/C=C/CCCNS(=O)(=O)c2cccc(OCC3CC3)c2)C(=O)N1 [Compound 44a, (E)-3-(cyclopropylmethoxy)-N-(6-(2,4-dioxoimidazolidin-1-yl)hex-4-en-1-yl)benzenesulfonamide] | 159
4 | O=C1CN(CCCCCCNS(=O)(=O)c2ccc(F)c(OCC3CC3)c2)C(=O)N1 [Compound 44b, 3-(cyclopropylmethoxy)-N-(6-(2,4-dioxoimidazolidin-1-yl)hexyl)-4-fluorobenzenesulfonamide] | 168
5 | CC(C)COc1cc(S(=O)(=O)NCCC/C=C/CN2CC(=O)NC2=O)ccc1F [Compound 45a, (E)-N-(6-(2,4-dioxoimidazolidin-1-yl)hex-4-en-1-yl)-4-fluoro-3-isobutoxybenzenesulfonamide] | 178
6 | CC(C)COc1cc(S(=O)(=O)NCCCCCCN2CC(=O)NC2=O)ccc1F [Compound 45b, N-(6-(2,4-dioxoimidazolidin-1-yl)hexyl)-4-fluoro-3-isobutoxybenzenesulfonamide] | 151
7 | O=C1CCN(C/C=C/CCCNS(=O)(=O)c2ccc(F)c(OCC3CC3)c2)C(=O)N1 [Compound 49a, (E)-3-(cyclopropylmethoxy)-N-(6-(2,4-dioxotetrahydropyrimidin-1(2H)-yl)hex-4-en-1-yl)-4-fluorobenzenesulfonamide] | 151
8 | O=C1CCN(C/C=C/CCCNS(=O)(=O)c2ccc(F)c(OCC3CC3)c2)C(=O)N1 [Compound 49b, (E)-3-(cyclopropylmethoxy)-N-(6-(2,4-dioxotetrahydropyrimidin-1(2H)-yl)hex-4-en-1-yl)-4-fluorobenzenesulfonamide] | 144
9 | CC(C)COc1cc(S(=O)(=O)NCCC/C=C/CN2CCC(=O)NC2=O)ccc1F [Compound 50a, (E)-N-(6-(2,4-dioxotetrahydropyrimidin-1(2H)-yl)hex-4-en-1-yl)-4-fluoro-3-isobutoxybenzenesulfonamide] | 156
10 | CC(C)COc1cc(S(=O)(=O)NCCCCCCN2CCC(=O)NC2=O)ccc1F [Compound 50b, N-(6-(2,4-dioxotetrahydropyrimidin-1(2H)-yl)hexyl)-4-fluoro-3-isobutoxybenzenesulfonamide] | 141
11 | O=C1CN(Cc2ccc(CNS(=O)(=O)c3cccc(OC4CCCC4)c3)cc2)C(=O)N1 [Example 40, 3-(cyclopentyloxy)-N-(4-((2,4-dioxoimidazolidin-1-yl)methyl)benzyl)benzenesulfonamide] | 53
12 | CC(C)(NS(=O)(=O)c1cccc(OC2CCCC2)c1)c1ccc(CN2CC(=O)NC2=O)cc1 [Example 41, 3-(cyclopentyloxy)-N-(2-(4-((2,4-dioxoimidazolidin-1-yl)methyl)phenyl)propan-2-yl)benzenesulfonamide] | 249
13 | O=C1CN(CCOCCCNS(=O)(=O)c2cccc(OCC3CC3)c2)C(=O)N1 [Example 42, 3-(cyclopropylmethoxy)-N-(3-(2-(2,4-dioxoimidazolidin-1-yl)ethoxy)propyl)benzenesulfonamide] | 136
14 | O=C1CCN(CCOCCCNS(=O)(=O)c2cccc(OCC3CC3)c2)C(=O)N1 [Example 47, 3-(cyclopropylmethoxy)-N-(3-(2-(2,4-dioxotetrahydropyrimidin-1(2H)-yl)ethoxy)propyl) benzenesulfonamide] | 8
15 | O=C1CCN(CCCOCCNS(=O)(=O)c2cccc(OCC3CC3)c2)C(=O)N1 [Example 48, 3-(cyclopropylmethoxy)-N-(2-(3-(2,4-dioxotetrahydropyrimidin-1(2H)-yl)propoxy)ethyl)benzenesulfonamide] | 82

The compounds below were run on colorectal (HCT 116 and SW620) cell line models (assay: MTS growth inhibition assay). Settings: 5-FU between 0 and 100 μmol/L; both colorectal cancer cell lines.
Format: cell-based
Protocol: The Cell Titer AQueous MTS assay (Promega) is carried out according to the manufacturers guidelines. […] The combination effect is determined by the combination index (CI) method utilizing Calcusyn software (Biosoft, Ferguson, Mo.). […] CI values <1, synergism; 1-1.2, additive and >1.2, antagonism.
Test compounds are evaluated for their antitumor activity in colorectal cancer cells using the MTS growth inhibition assay. HCT116 and SW620 cells are exposed to increasing concentrations of each agent for 72 hours and growth inhibition is directly compared to vehicle-treated controls. The NSCLC cell lines A549 and H1299 are exposed to increasing concentrations of each agent for 72 hours and growth inhibition is directly compared to vehicle-treated controls.
Simultaneous treatment with increasing concentrations of 5-FU and a test compound at fixed concentrations of 25 μmol/L is determined.

Row | Compound | growth inhibition
16 | O=c1[nH]cc(F)c(=O)[nH]1 [Example 5-FU, 5-fluorouracil] | dose-dependent increases in growth inhibition

What follows are compounds tested on colorectal (HCT116), breast (MCF-7) and non-small cell lung (H1299, A549, H358 and H460) cell line models (assay: Colony forming assay). Settings: FUdR between 0.5 and 2.5 μmol/L; all cell lines evaluated.
Format: cell-based
Protocol: Colony forming assay showing the ability of colon (SW620, HCT116), non-small cell lung (A549, H460, H1299 and H358) and breast (MCF7) cancer cells to survive and proliferate following transient 24 hour exposure to test compounds, FUdR and combinations are determined. Specifically, cells are seeded at densities between 50 and 100 cells/well in 24-well plates. Twenty-four hours later, cells are treated with increasing concentrations of a rtest compound, a fixed dose of FUdR and combinations of these. After 24 hours, drug is removed, cells are rinsed and allowed to outgrow for 10-14 days. At the conclusion of the outgrowth, cells are fixed in 60% ice cold methanol and stained with 0.1% crystal violet, scanned and counted. Data is presented as percentage of untreated controls (mean±SD). Fraction affected and combination indexes are calculated according to the method of Chou and Talalay where <1 is indicative of a synergistic drug interaction.
Colony forming assays are performed to evaluate the effectiveness of test compounds alone and in combination with the fluoropyrimidine thymidylate synthase (TS) inhibitor fluorodeoxyuridine (FUdR) at reducing cancer cell viability in colorectal (HCT116), breast (MCF-7) and non-small cell lung (H1299, A549, H358 and H460) cell line models. […]

Row | Compound | colonies formed
17 | O=c1[nH]c(=O)n([C@H]2C[C@H](O)[C@@H](CO)O2)cc1F [FUdR, fluorodeoxyuridine] | dose-dependent decreases in colonies formed
